Experimental data from paper PMC12606464, “Investigating NFE2L1 activators for targeted protein aggregate clearance: a follow-up study” (RSC Medicinal Chemistry, 2025).
Marks after values point to notes of the source that are not given here.

Assays:
[1] = test system: NFE2L1 pathway; assay: 3×PSMA4-ARE-LUC dual luciferase reporter assay in HEK293 cells; type: cell-based, human; conditions: Homo sapiens; 5 μM, 16 h, HEK293, luminescence relative to DMSO-treated cells; read-out: NFE2L1 activation [5 μM]
From the text: In our previous work,[43] we developed a library of NFE2L1 stimulators using a cell-based luciferase reporter assay. This system was based on three tandem copies of the antioxidant response element (ARE) derived from the NFE2L1 target gene proteasome subunit alpha type-4 (3xPSMA4, PSMA4-ARE-LUC). It was designed to detect the proteasome “bounce-back” response induced by proteasome inhibitors such as MG132 or bortezomib.[22,43,45,46] The reporter assay was adapted to a 384-well format and used to evaluate a new set of RUN compounds designed around the structural framework of the RUN-47 activator. We focused on identifying compounds that increased the 3×PSMA4-ARE-LUC signal (Fig. 1A), while simultaneously assessing cytotoxicity (see the SI, Fig. S2). […] In contrast, thiourea- and urea-containing derivatives generally produced only weak to intermediate responses, rarely exceeding a fold change of 7.
Fig. 1 (A) Targeted library screening of RUN compounds using the 3×PSMA4-ARE-LUC dual reporter assay in HEK293 cells. Cells were exposed to RUN compounds (5 μM) for 16 hours, and luciferase activity was measured. Data are presented as the mean ± SD from three independent experiments (n = 3). Results are shown as a fold change in luminescence relative to DMSO-treated cells. Selected hit compounds are highlighted in distinct colours. (B) RUN-89 specifically activates the NFE2L1 pathway. The DDI2 knockout (KO) and parental (WT) HCT116 cells were transfected with the 3×PSMA4-ARE-LUC reporter and treated with 0.5 μM bortezomib (BTZ) and 5 μM RUN-89 for 16 hours. Data are presented as the Geomean ± GeoSD of three independent experiments (n = 3). Statistical analysis was performed on log2-transformed values using two-way repeated-measures ANOVA followed by Šídak's multiple comparison test. (C) RUN-89 selectively triggers downstream signaling events associated with NFE2L1 gene expression. HEK293 cells were transfected with lipid nanoparticles (LNPs) carrying siRNAs targeting NFE2L1 or NFE2L2. LNPs formulated with non-targeting siRNA served as a negative control. Following 24 hours of incubation, cells were treated with 7.5 μM RUN-89 or DMSO (vehicle) for an additional 16 hours. Expression of the proteasomal subunit gene PSMC4 was then quantified by RT-qPCR. Data are shown as the Geomean ± GeoSD from three independent biological replicates (n = 3). Log2-transformed data were analyzed using two-way repeated-measures ANOVA with the Geisser–Greenhouse correction, followed by Tukey's multiple comparison test with individual variances computed for each comparison. Additional results for NFE2L1, NFE2L2, PSMB7, and PSMD12 are presented in SI Fig. S10.
Figure S1: Concentration–response of luciferase cell-based assay (PSMA4-ARE-luc2P reporter) on treatment with RUN-81, RUN-89, and RUN-94. Concentration is plotted on the X-axis. Dose–response relationships were analyzed using a four-parameter logistic curve (4PL), or a bell-shaped dose-response curve, both with weighting 1/Y^2. Dotted lines represent 95% confidence bands. Calculated EC₅₀ values, curve parameters, and asymmetrical confidence intervals are summarized in the accompanying table . Data are presented as mean ± SD from four independent experiments (n=4).
(§1) 2 Biology Experimental Procedures
(§2) Safety statement: No unexpected or unusually high safety hazards were encountered. […]
Most of the cell lines were cultured in Dulbecco's Modified Eagle Medium (DMEM) enriched with 10% fetal bovine serum (FBS) and 2 mM L-glutamine, under standard conditions of 37 °C with 5% CO₂. DNA transfection was performed with Lipofectamine 2000, following the manufacturer's instructions. Transgenic cells were then selected with either G418 (400 µg/mL) or hygromycin B (450 µg/mL), based on the selection marker encoded by the plasmid used. Cell viability was evaluated using the […]

[2] = test system: HEK293 cells; assay: alamarBlue cytotoxicity assessment in HEK293 cells; type: cell-based, human; conditions: 16 h
Experimental: Figure S2: Concentration-dependent cytotoxicity assessment of RUN compounds.
HEK293 cells were treated for 16 hours with increasing concentrations of RUN compounds (1.25 µM; 2.5 µM; 5; 7.5 and 10 µM) or DMSO (negative control). Cell viability was determined using the alamarBlue assay following the protocol of Riss.(1) Data are presented as means ± SD from three independent experiments (n = 3). Statistical analysis was done using repeated measures one-way ANOVA with Geisser–Greenhouse correction, followed by Dunnett’s multiple comparisons test. *p<0.05. Detailed results of the analysis are shown in […]
(1 picture or pasted object on this page, not shown here)
as §1, §2
Cell lines were sourced from the ATCC (USA) and/or ECACC (UK), namely HCT116 (human colorectal carcinoma), ATCC CCL-247 (RRID:CVCL_0291), HEK-293 (human embryonic kidney), ATCC CRL-1573 (RRID:CVCL_0045), SH-SY5Y (human neuroblastoma), ATCC CRL-2266 (RRID:CVCL_0019). The characteristics of DDI2 knockout cells derived from HCT116 cells have been described previously (Sedlacek et al., 2025). All cell lines were tested for mycoplasma contamination. Most of the cell lines were cultured in Dulbecco's Modified Eagle Medium (DMEM) enriched with 10% fetal bovine serum (FBS) and 2 mM L-glutamine, under standard conditions of 37 °C with 5% CO₂. DNA transfection was performed with Lipofectamine 2000, following the manufacturer's instructions. Transgenic cells were then selected with either G418 (400 µg/mL) or hygromycin B (450 µg/mL), based on the selection marker encoded by the plasmid used. […]

[3] = HEK293, alamarBlue, concentration not given

| SMILES | fold induction at 5 µM [1] | Tox [% of ctrl.] [2, 3] | Tox [% of ctrl.] ([2]; human) |
| --- | --- | --- | --- |
| COc1ccc(/C=C2\CN(C(=O)c3ccccn3)C/C(=C\c3ccc(OC)c(OC)c3)C2=O)cc1OC [RUN-108] | 0.9 | 83% of ctrl. | – |
| COc1ccc(/C=C2\CN(C(=O)C3CCCN3)C/C(=C\c3ccc(OC)c(OC)c3)C2=O)cc1OC (centres unmarked) [RUN-113] | 3.8 | 94% of ctrl. | – |
| COc1ccc(/C=C2\CC(NC(=O)Cn3ccnc3)C/C(=C\c3ccc(OC)c(OC)c3)C2=O)cc1OC (centres unmarked) [RUN-99] | 1.6 | 103% of ctrl. | – |
| COc1ccc(/C=C2\CC(NC(=O)CCCN)C/C(=C\c3ccc(OC)c(OC)c3)C2=O)cc1OC.O=C(O)C(F)(F)F (centres unmarked) [RUN-100] | 1.2 | 100% of ctrl. | – |
| COc1ccc(/C=C2\CN(C(=O)CN)C/C(=C\c3ccc(OC)c(OC)c3)C2=O)cc1OC [RUN-85] | 2.7 | – | – |
| COc1ccc(/C=C2\CC(NC(=O)CN(C)C)C/C(=C\c3ccc(OC)c(OC)c3)C2=O)cc1OC.O=C(O)C(F)(F)F (centres unmarked) [RUN-86] | 2 | 96% of ctrl. | – |
| COc1ccc(/C=C2\CN(C(=O)C34CCN(CC3)CC4)C/C(=C\c3ccc(OC)c(OC)c3)C2=O)cc1OC [RUN-83] | 1.5 | – | 87% of ctrl. |
| COc1ccc(/C=C2/C(=O)/C(=C/c3ccc(OC)c(OC)c3)C3CCC2N3CCN2CCOCC2)cc1OC [RUN-79] | 0.9 | – | 104% of ctrl. |
| COc1ccc(/C=C2/C(=O)/C(=C/c3ccc(OC)c(OC)c3)C3CCC2N3)cc1OC [RUN-78] | 1.4 | – | 89% of ctrl. |
| COc1ccc(/C=C2\CN(C(=O)Cn3ccnc3)C/C(=C\c3ccc(OC)c(OC)c3)C2=O)cc1OC [RUN-111] | 2.7 | 78% of ctrl. | – |
| COc1ccc(/C=C2\CC(NC(=O)CCCN(C)C)C/C(=C\c3ccc(OC)c(OC)c3)C2=O)cc1OC (centres unmarked) [RUN-91] | 1.6 | 95% of ctrl. | – |
| COc1ccc(/C=C2\CN(C(=O)CN3CCN(C)CC3)C/C(=C\c3ccc(OC)c(OC)c3)C2=O)cc1OC [RUN-105] | 4.5 | 78% of ctrl. | – |
| COc1ccc(/C=C2\CC(NC(=O)CN3CCN(C)CC3)C/C(=C\c3ccc(OC)c(OC)c3)C2=O)cc1OC (centres unmarked) [RUN-90] | 2.8 | 87% of ctrl. | – |
| CCN(CC)CC(=O)N1C/C(=C\c2ccc(OC)c(OC)c2)C(=O)/C(=C/c2ccc(OC)c(OC)c2)C1.O=C(O)C(F)(F)F [RUN-116] | 3.1 | 78% of ctrl. | – |
| COc1ccc(/C=C2\CN(C(=O)c3ncccc3C)C/C(=C\c3ccc(OC)c(OC)c3)C2=O)cc1OC [RUN-107] | 5 | 73%* % of ctrl. | – |
| COc1ccc(/C=C2\CC(NC(=O)CCN(C)C)C/C(=C\c3ccc(OC)c(OC)c3)C2=O)cc1OC (centres unmarked) [RUN-101] | 2 | 97% of ctrl. | – |
| CCOC(=O)CNC(=O)N1C/C(=C\c2ccc(OC)c(OC)c2)C(=O)/C(=C/c2ccc(OC)c(OC)c2)C1 [RUN-74] | 7.1 | 81% of ctrl. | – |
| COc1ccc(/C=C2\CN(C(=S)Nc3cccnc3)C/C(=C\c3ccc(OC)c(OC)c3)C2=O)cc1OC [RUN-73] | 1.9 | 84% of ctrl. | – |
| CCOC(=O)CCNC(=O)N1C/C(=C\c2ccc(OC)c(OC)c2)C(=O)/C(=C/c2ccc(OC)c(OC)c2)C1 [RUN-75] | 6.8 | 82% of ctrl. | – |
| COc1ccc(/C=C2\CN(C(=O)CCCN(C)C)C/C(=C\c3ccc(OC)c(OC)c3)C2=O)cc1OC.O=C(O)C(F)(F)F [RUN-106] | 2.8 | 75% of ctrl. | – |
| COCCOCCOCC(=O)NC1C/C(=C\c2ccc(OC)c(OC)c2)C(=O)/C(=C/c2ccc(OC)c(OC)c2)C1 (centres unmarked) [RUN-88] | 3.9 | 86% of ctrl. | – |
| COc1ccc(/C=C2\CC(NC(=O)c3ncccc3C)C/C(=C\c3ccc(OC)c(OC)c3)C2=O)cc1OC (centres unmarked) [RUN-93] | 11.9 | 75% of ctrl. | – |
| COc1ccc(/C=C2\CN(C(=O)CCCN)C/C(=C\c3ccc(OC)c(OC)c3)C2=O)cc1OC [RUN-115] | 1.8 | 85% of ctrl. | – |
| COc1ccc(/C=C2\CN(C(=S)NCCN3CCOCC3)C/C(=C\c3ccc(OC)c(OC)c3)C2=O)cc1OC [RUN-77] | 2.5 | 84% of ctrl. | – |
| COc1ccc(/C=C2\CN(C(=O)CCN)C/C(=C\c3ccc(OC)c(OC)c3)C2=O)cc1OC [RUN-117] | 1 | 83% of ctrl. | – |
| COc1ccc(/C=C2\CN(C(=O)C3CCCC3)C/C(=C\c3ccc(OC)c(OC)c3)C2=O)cc1OC [RUN-103] | 9.4 | 80% of ctrl. | – |
| COc1ccc(/C=C2\CN(C(=O)CCN(C)C)C/C(=C\c3ccc(OC)c(OC)c3)C2=O)cc1OC.O=C(O)C(F)(F)F [RUN-114] | 3.1 | 92% of ctrl. | – |
| CCN(CC)CC(=O)NC1C/C(=C\c2ccc(OC)c(OC)c2)C(=O)/C(=C/c2ccc(OC)c(OC)c2)C1 (centres unmarked) [RUN-102] | 1.3 | 96% of ctrl. | – |
| COc1ccc(/C=C2\CC(NC(=O)CCN)C/C(=C\c3ccc(OC)c(OC)c3)C2=O)cc1OC (centres unmarked) [RUN-104] | 0.8 | 105% of ctrl. | – |
| COc1ccc(/C=C2\CC(NC(=O)[C@@H]3CCCN3)C/C(=C\c3ccc(OC)c(OC)c3)C2=O)cc1OC.O=C(O)C(F)(F)F (some centres unmarked) [RUN-96] | 2.2 | 93% of ctrl. | – |
